Data as given in paper PMC6150311, “Proline-Based Carbamates as Cholinesterase Inhibitors” (Molecules : A Journal of Synthetic Chemistry and Natural …, 2017).

Tests used:
[1] = test system: human monocytic leukemia THP-1 cells; assay: In vitro cytotoxicity assay (WST-1); assay type: cell-based; settings: 24 h, highest tested concentration 30 μM, read-out: tox. IC50
Experimental: The cytotoxicity was evaluated as the IC50 value (compound concentration causing 50% inhibition of cell population proliferation) (see Table 1). […] Based on these observations, it can be concluded that the discussed compounds can be considered as non-toxic agents for subsequent design of novel drugs.
Human monocytic leukemia THP-1 cells were used for in vitro toxicity assay. Cells were obtained from the European Collection of Cell Cultures (ECACC, Salisbury, UK) and routinely cultured in RPMI 1640 (Lonza, Verviers, Belgium) medium supplemented with 10% fetal bovine serum (FBS, Sigma), 2% L-glutamine, 1% penicillin and streptomycin (Lonza, Verviers, Belgium) at 37 °C with 5% CO2. Cells were passaged at approximately one week intervals. The cytotoxicity of the compounds was determined using a WST-1 assay kit (Roche Diagnostics, Mannheim, Germany) according to the manufacturer’s instructions. The tested compounds were dissolved in DMSO and added in five increasing concentrations (0.37, 1.1, 3.3, 10, and 30 μM) to the cell suspension in the culture RPMI 1640 medium. The maximum concentration of DMSO (Sigma) in the assays never exceeded 0.1%. Subsequently, the cells were incubated for 24 h at 37 °C with 5% CO2. For WST-1 assays, cells were seeded into 96-well plates (5 × 10^4 cells/well in 100 μL culture medium) in triplicate in serum-free RPMI 1640 medium, and measurements were taken 24 h after the treatment with the compounds. The median inhibition concentration values, IC50, were deduced through the production of a dose-response curve. All data were evaluated using the GraphPad Prism 5.00 software (GraphPad Software, San Diego, CA, USA).

[2] = biological target: T1, AChE from electric eel (Electrophorus electricus) (Electrophorus electricus, UniProt O42275); assay: In vitro AChE inhibition, modified Ellman's method; assay type: biochemical
T1 construct: AChE (from electric eel) and BChE (from equine serum); purchased Sigma, St. Louis, MO, USA; host or cells: electric eel (animal source)
Experimental: (§1) The ability of all prepared compounds to inhibit AChE from electric eel (Electrophorus electricus) and BChE from equine serum (both purchased from Sigma, St. Louis, MO, USA) was determined in vitro using a modified Ellman’s method. […] The Ellman’s method is widely used for measuring cholinesterase activity and the effectivity of ChEIs. It is a simple, rapid and direct method to determine SH and –S–S– groups content in proteins. Cholinesterase activity is measured indirectly by quantifying the concentration of 5-thio-2-nitrobenzoic acid (TNB) ion formed in the reaction between disulfide reagent 5,5′-dithiobis-2-nitrobenzoic acid (DTNB) and thiocholine, a product of substrate (i.e., acetylthiocholine, ATCh) hydrolysis catalyzed by cholinesterase.
(§2) All tested compounds were dissolved in DMSO (concentration 0.01 M) and diluted in demineralized water (concentrations 0.001 M and 0.0001 M). The ability of tested compounds to inhibit AChE (from electric eel) and BChE (from equine serum) was determined using the modified Ellman’s method at 25 °C in the presence of phosphate buffered saline (PBS, 0.1 M, pH 7.4) in a glass cuvette with 1 cm optical path. The enzyme activity in total reaction mixture (2 mL) was 0.2 U/mL, the concentration of substrate ATCh 40 μM and the concentration of DTNB 0.1 mM for all reactions. The IC50 value was obtained from the dependence of v0/vi on the concentration of the tested compound (inhibitor), where v0 is the reaction rate of uninhibited reaction and vi is the reaction rate of inhibited reaction (for the given concentration of the inhibitor). First, v0 was determined. Into the cuvette PBS (0.1 M, pH 7.4), DTNB and ATCh were placed. The enzymatic reaction was started by adding the enzyme. […] The measurement was performed in triplicate at least, and average v0 was determined. Then, vi (for the given concentration of the inhibitor) was determined. Into the cuvette DTNB, ATCh, a chosen volume of the suitably diluted inhibitor (to achieve the required concentration of the inhibitor in the total reaction mixture) and a certain volume of PBS (to achieve the total volume of the reaction mixture 2 mL after adding the enzyme) were placed. The enzymatic reaction was started by adding the enzyme. […] For determination of IC50 values, twelve different concentrations of inhibitor were used and each measurement was performed in triplicate at least.

BChE from equine serum = biological target: T2, BChE from equine serum (Equus caballus, UniProt P81908); assay: In vitro BChE inhibition, modified Ellman's method; assay type: biochemical; settings: for SI (index selectivity) = IC50 (AChE)/IC50 (BChE): ratio AChE/BChE, higher = more selective to BChE
T2 construct: BChE (from equine serum); purchased Sigma, St. Louis, MO, USA; host or cells: equine serum
Experimental: as §1, §2

T2 sequence (P81908 whole entry): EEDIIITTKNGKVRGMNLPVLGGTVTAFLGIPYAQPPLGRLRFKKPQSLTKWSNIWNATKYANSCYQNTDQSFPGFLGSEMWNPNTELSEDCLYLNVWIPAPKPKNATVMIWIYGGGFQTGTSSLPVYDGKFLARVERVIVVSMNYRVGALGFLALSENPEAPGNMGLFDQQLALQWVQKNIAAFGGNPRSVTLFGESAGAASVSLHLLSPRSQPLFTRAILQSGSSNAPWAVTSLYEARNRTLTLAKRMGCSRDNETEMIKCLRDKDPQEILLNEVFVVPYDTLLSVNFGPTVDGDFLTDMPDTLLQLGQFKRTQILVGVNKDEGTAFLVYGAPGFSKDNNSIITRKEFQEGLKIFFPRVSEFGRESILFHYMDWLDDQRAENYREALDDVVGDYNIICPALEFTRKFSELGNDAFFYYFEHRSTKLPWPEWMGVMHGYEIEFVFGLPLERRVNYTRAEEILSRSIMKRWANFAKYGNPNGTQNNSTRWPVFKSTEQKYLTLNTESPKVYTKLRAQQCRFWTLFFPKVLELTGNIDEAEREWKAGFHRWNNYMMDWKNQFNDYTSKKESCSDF
T1 sequence (O42275 24-633): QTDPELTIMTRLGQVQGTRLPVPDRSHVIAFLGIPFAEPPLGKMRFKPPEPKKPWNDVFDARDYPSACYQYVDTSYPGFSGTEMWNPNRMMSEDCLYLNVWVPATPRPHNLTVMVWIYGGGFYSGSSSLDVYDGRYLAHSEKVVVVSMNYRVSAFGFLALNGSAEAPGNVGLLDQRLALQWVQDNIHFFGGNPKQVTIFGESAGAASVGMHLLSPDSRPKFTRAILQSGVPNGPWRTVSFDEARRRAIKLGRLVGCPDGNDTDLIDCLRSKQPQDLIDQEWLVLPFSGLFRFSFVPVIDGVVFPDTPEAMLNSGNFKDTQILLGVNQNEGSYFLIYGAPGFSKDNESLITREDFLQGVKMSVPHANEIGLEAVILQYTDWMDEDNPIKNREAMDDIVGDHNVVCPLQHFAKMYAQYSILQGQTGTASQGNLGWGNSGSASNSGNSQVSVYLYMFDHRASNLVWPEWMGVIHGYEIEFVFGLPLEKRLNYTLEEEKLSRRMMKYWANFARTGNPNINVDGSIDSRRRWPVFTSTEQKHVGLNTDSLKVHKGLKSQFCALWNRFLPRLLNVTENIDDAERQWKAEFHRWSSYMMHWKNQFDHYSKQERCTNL

Compound | IC50 [1] | IC50 [2] | IC50 (BChE from equine serum) | SI (index selectivity) = IC50 (AChE)/IC50 (BChE) (BChE from equine serum) | selectivity to BChE (in words) (BChE from equine serum; BChE vs AChE)
O=C(Nc1ccccc1)[C@@H]1CCCN1C(=O)OCc1ccccc1 [Compound 1, Benzyl (2S)-2-(phenylcarbamoyl)pyrrolidine-1-carboxylate] | > 30 µM | 106 ± 2.2 µM | 55.6 ± 1.01 µM | 1.91 | 
COc1ccccc1NC(=O)[C@@H]1CCCN1C(=O)OCc1ccccc1 [Compound 2a, Benzyl (2S)-2-[(2-methoxyphenyl)carbamoyl]pyrrolidine-1-carboxylate] | > 30 µM | 131 ± 1.29 µM | 51.5 ± 0.75 µM | 2.54 | 
COc1cccc(NC(=O)[C@@H]2CCCN2C(=O)OCc2ccccc2)c1 [Compound 2b, Benzyl (2S)-2-[(3-methoxyphenyl)carbamoyl]pyrrolidine-1-carboxylate] | > 30 µM | 126 ± 2.79 µM | 58.47 ± 0.42 µM | 2.16 | 
COc1ccc(NC(=O)[C@@H]2CCCN2C(=O)OCc2ccccc2)cc1 [Compound 2c, Benzyl (2S)-2-[(4-methoxyphenyl)carbamoyl]pyrrolidine-1-carboxylate] | > 30 µM | 109.4 ± 0.22 µM | 117.4 ± 0.45 µM | 0.93 | 
Cc1ccccc1NC(=O)[C@@H]1CCCN1C(=O)OCc1ccccc1 [Compound 3a, Benzyl (2S)-2-[(2-methylphenyl)carbamoyl]pyrrolidine-1-carboxylate] | > 30 µM | 61.9 ± 1.35 µM | 98.3 ± 5.88 µM | 0.63 | 
Cc1cccc(NC(=O)[C@@H]2CCCN2C(=O)OCc2ccccc2)c1 [Compound 3b, Benzyl (2S)-2-[(3-methylphenyl)carbamoyl]pyrrolidine-1-carboxylate] | > 30 µM | 81.06 ± 0.03 µM | 115 ± 4.83 µM | 0.71 | 
Cc1ccc(NC(=O)[C@@H]2CCCN2C(=O)OCc2ccccc2)cc1 [Compound 3c, Benzyl (2S)-2-[(4-methylphenyl)carbamoyl]pyrrolidine-1-carboxylate] | > 30 µM | 123.4 ± 0.44 µM | 153 ± 2.29 µM | 0.81 | 
O=C(Nc1ccccc1F)[C@@H]1CCCN1C(=O)OCc1ccccc1 [Compound 4a, Benzyl (2S)-2-[(2-fluorophenyl)carbamoyl]pyrrolidine-1-carboxylate] | > 30 µM | 51.9 ± 0.76 µM | 60 µM | 0.86 | 
O=C(Nc1cccc(F)c1)[C@@H]1CCCN1C(=O)OCc1ccccc1 [Compound 4b, Benzyl (2S)-2-[(3-fluorophenyl)carbamoyl]pyrrolidine-1-carboxylate] | > 30 µM | 69.88 ± 0.21 µM | 34.61 ± 0.11 µM | 2.02 | 
O=C(Nc1ccc(F)cc1)[C@@H]1CCCN1C(=O)OCc1ccccc1 [Compound 4c, Benzyl (2S)-2-[(4-fluorophenyl)carbamoyl]pyrrolidine-1-carboxylate] | > 30 µM | 87.2 ± 1 µM | 58.1 ± 1.39 µM | 1.50 | 
O=C(Nc1ccccc1Cl)[C@@H]1CCCN1C(=O)OCc1ccccc1 [Compound 5a, Benzyl (2S)-2-[(2-chlorophenyl)carbamoyl]pyrrolidine-1-carboxylate] | > 30 µM | 46.4 ± 1.05 µM | 53.47 ± 0.52 µM | 0.87 | 
O=C(Nc1cccc(Cl)c1)[C@@H]1CCCN1C(=O)OCc1ccccc1 [Compound 5b, Benzyl (2S)-2-[(3-chlorophenyl)carbamoyl]pyrrolidine-1-carboxylate] | > 30 µM | 48.27 ± 0.11 µM | 64.2 ± 7.14 µM | 0.75 | 
O=C(Nc1ccc(Cl)cc1)[C@@H]1CCCN1C(=O)OCc1ccccc1 [Compound 5c, Benzyl (2S)-2-[(4-chlorophenyl)carbamoyl]pyrrolidine-1-carboxylate] | > 30 µM | 77.3 ± 3.8 µM | 147.3 ± 1.18 µM | 0.52 | 
O=C(Nc1ccccc1Br)[C@@H]1CCCN1C(=O)OCc1ccccc1 [Compound 6a, Benzyl (2S)-2-[(2-bromophenyl)carbamoyl]pyrrolidine-1-carboxylate] | > 30 µM | 84.1 ± 4.39 µM | 27.4 ± 0.85 µM | 3.07 | greater selectivity to BChE
O=C(Nc1cccc(Br)c1)[C@@H]1CCCN1C(=O)OCc1ccccc1 [Compound 6b, Benzyl (2S)-2-[(3-bromophenyl)carbamoyl]pyrrolidine-1-carboxylate] | > 30 µM | 74.16 ± 0.2 µM | 47.68 ± 0.08 µM | 1.56 | 
O=C(Nc1ccc(Br)cc1)[C@@H]1CCCN1C(=O)OCc1ccccc1 [Compound 6c, Benzyl (2S)-2-[(4-bromophenyl)carbamoyl]pyrrolidine-1-carboxylate] | > 30 µM | 81.32 ± 0.67 µM | 28.2 ± 0.5 µM | 2.88 | 
O=C(Nc1ccccc1C(F)(F)F)[C@@H]1CCCN1C(=O)OCc1ccccc1 [Compound 7a, Benzyl (2S)-2-{[2-(trifluoromethyl)phenyl]carbamoyl}pyrrolidine-1-carboxylate] | > 30 µM | 73.2 ± 2.88 µM | 44.9 ± 1.66 µM | 1.63 | 
O=C(Nc1cccc(C(F)(F)F)c1)[C@@H]1CCCN1C(=O)OCc1ccccc1 [Compound 7b, Benzyl (2S)-2-{[3-(trifluoromethyl)phenyl]carbamoyl}pyrrolidine-1-carboxylate] | > 30 µM | 68.91 ± 0.06 µM | 39.5 ± 1.4 µM | 1.75 | 
O=C(Nc1ccc(C(F)(F)F)cc1)[C@@H]1CCCN1C(=O)OCc1ccccc1 [Compound 7c, Benzyl (2S)-2-{[4-(trifluoromethyl)phenyl]carbamoyl}pyrrolidine-1-carboxylate] | > 30 µM | 88.6 ± 1.6 µM | 75.5 ± 2.94 µM | 1.17 | 
O=C(Nc1ccccc1[N+](=O)[O-])[C@@H]1CCCN1C(=O)OCc1ccccc1 [Compound 8a, Benzyl (2S)-2-[(2-nitrophenyl)carbamoyl]pyrrolidine-1-carboxylate] | > 30 µM | 152.21 ± 0.01 µM | 48.7 ± 0.8 µM | 3.13 | 
O=C(Nc1cccc([N+](=O)[O-])c1)[C@@H]1CCCN1C(=O)OCc1ccccc1 [Compound 8b, Benzyl (2S)-2-[(3-nitrophenyl)carbamoyl]pyrrolidine-1-carboxylate] | > 30 µM | 65 ± 0.97 µM | 55.9 ± 0.63 µM | 1.16 | 
O=C(Nc1ccc([N+](=O)[O-])cc1)[C@@H]1CCCN1C(=O)OCc1ccccc1 [Compound 8c, Benzyl (2S)-2-[(4-nitrophenyl)carbamoyl]pyrrolidine-1-carboxylate] | > 30 µM | 84.52 ± 0.06 µM | 58.75 ± 0.27 µM | 1.44 | 
